Measurements published in article PMC5897141 (Journal of neurochemistry, 2018).
Values joined by “and” are separate entries in the source; they are usually repeats but may differ in a detail not shown here. Equal entries are not always repeated. Where two headings read alike, the source gives them in different places.

Experiments:
[1] = HPLC radio-metabolite analysis of arterial plasma; format: in vivo, cynomolgus macaques
[2] = test system: VAChT; settings: Lassen plot, baseline vs (-)-vesamicol 0.125 mg/kg; subject A
[3] = test system: VAChT; format: in vivo, cynomolgus macaques
[4] = test system: σ1/2 receptors; settings: cited from earlier work
[5] = biological target: VAChT; settings: ref Tu et al. 2015; cited from earlier work
[6] = test system: VAChT; assay: Test-retest reproducibility of BPND; format: in vivo, cynomolgus macaques; settings: mean ± SD, 3 NHP subjects
[7] = test system: VAChT; settings: NHP brain; ref Nishiyama et al. 2014; cited from earlier work
[8] = after 20 min p.i., 3 NHP subjects
[9] = 1TCM, striatum, mean ± SD, n = 3
[10] = 2TCM, cerebellum-hemispheres, mean ± SD, n = 3
[11] = 2TCM, frontal cortex, mean ± SD, n = 3
[12] = 2TCM, hippocampus, mean ± SD, n = 3
[13] = 2TCM, midbrain, mean ± SD, n = 3
[14] = 2TCM, occipital cortex, mean ± SD, n = 3
[15] = 2TCM, striatum, mean ± SD, n = 3
[16] = 2TCM, temporal cortex, mean ± SD, n = 3
[17] = 2TCM, thalamus, mean ± SD, n = 3
[18] = 2TCM, white matter, mean ± SD, n = 3
[19] = LoganAIF, striatum, mean ± SD, n = 3
[20] = MA1, striatum, mean ± SD, n = 3
[21] = RTM, reference cerebellum-hemispheres, striatum, mean ± SD, n = 7
[22] = SRTM, reference cerebellum-hemispheres, striatum, mean ± SD, n = 7
[23] = SRTM, frontal cortex, mean ± SD, n = 7
[24] = SRTM, hippocampus, mean ± SD, n = 7
[25] = SRTM, middle brain, mean ± SD, n = 7
[26] = SRTM, occipital cortex, mean ± SD, n = 7
[27] = SRTM, temporal cortex, mean ± SD, n = 7
[28] = SRTM, thalamus, mean ± SD, n = 7
[29] = SRTM, white matter, mean ± SD, n = 7

O=C(c1ccc(F)cc1)C1CCN(C2Cc3c(cccc3OCCF)CC2O)CC1 (single isomer, unassigned; (-)) [[^18F]VAT, ((-)-(1-(-8-(2-fluoroethoxy)-3-hydroxy-1,2,3,4-tetrahydronaphthalen-2-yl)piperidin-4-yl)(4-fluorophenyl)-methanone)]
percentile of unmetabolized parental tracer in plasma ([1]; 2 min post-injection): 96% ± 1
percentile of unmetabolized parental tracer in plasma ([1]; 90 min post-injection): 14% ± 2.7
parent tracer as share of total radioactivity in plasma [1, 8]: over 60%
polar metabolites as share of total radioactivity in plasma [1, 8]: ~ 40%
time of peak concentration of parental compound in plasma ([1]; post-injection): less than 1 min
VND (non-displaceable distribution volume) [2]: ~ 1.27
BPND [3, 9]: 2.69 ± 1.1 (24%)
DVR [3, 9]: 3.70 ± 1.1 (17%)
K1 [3, 9]: 0.221 ± 0.20 (52%) mL·cm^−3·min^−1
VT [3, 9]: 22.12 ± 14.1 (37%) mL· cm^−3
k2 [3, 9]: 0.009 ± 0.004 (26%) min^−1
BPND = DVR-1 ([3]; 2TCM, cerebellum-hemispheres (reference region), mean ± SD, n = 3): 0.00 ± 0.00
K1 [3, 10]: 0.144 ± 0.093 mL·cm^−3·min^−1
VT [3, 10]: 5.85 ± 5.88 mL· cm^−3
k2 [3, 10]: 0.063 ± 0.010 min⁻¹
k3 [3, 10]: 0.007 ± 0.005 min⁻¹
k3 / k4 [3, 10]: 1.09 ± 0.84
k4 [3, 10]: 0.004 ± 0.003 min⁻¹
BPND = DVR-1 [3, 11]: 0.44 ± 0.10
K1 [3, 11]: 0.103 ± 0.046 mL·cm^−3·min^−1
VT [3, 11]: 7.13 ± 6.52 mL· cm^−3
k2 [3, 11]: 0.035 ± 0.004 min⁻¹
k3 [3, 11]: 0.010 ± 0.012 min⁻¹
k3 / k4 [3, 11]: 0.94 ± 0.64
k4 [3, 11]: 0.004 ± 0.001 min⁻¹
BPND = DVR-1 [3, 12]: 0.61 ± 0.41
K1 [3, 12]: 0.102 ± 0.059 mL·cm^−3·min^−1
VT [3, 12]: 7.46 ± 5.56 mL· cm^−3
k2 [3, 12]: 0.035 ± 0.008 min⁻¹
k3 [3, 12]: 0.014 ± 0.010 min⁻¹
k3 / k4 [3, 12]: 1.15 ± 0.62
k4 [3, 12]: 0.014 ± 0.013 min⁻¹
BPND = DVR-1 [3, 13]: 0.18 ± 0.13
K1 [3, 13]: 0.107 ± 0.091 mL·cm^−3·min^−1
VT [3, 13]: 5.61 ± 4.55 mL· cm^−3
k2 [3, 13]: 0.039 ± 0.009 min⁻¹
k3 [3, 13]: 0.007 ± 0.003 min⁻¹
k3 / k4 [3, 13]: 1.06 ± 0.30
k4 [3, 13]: 0.006 ± 0.001 min⁻¹
BPND = DVR-1 [3, 14]: 0.12 ± 0.075
K1 [3, 14]: 0.101 ± 0.054 mL·cm^−3·min^−1
VT [3, 14]: 5.51 ± 4.97 mL· cm^−3
k2 [3, 14]: 0.039 ± 0.005 min⁻¹
k3 [3, 14]: 0.004 ± 0.001 min⁻¹
k3 / k4 [3, 14]: 0.82 ± 0.53
k4 [3, 14]: 0.005 ± 0.001 min⁻¹
DVR [3, 15]: 4.37 ± 0.34 (4%)
K1 [3, 15]: 0.113 ± 0.068 (35%) mL·cm^−3·min^−1 and 0.113 ± 0.068 mL·cm^−3·min^−1
VT [3, 15]: 22.31 ± 20.7 (54%) mL· cm^−3 and 22.31 ± 20.71 mL· cm^−3
k2 [3, 15]: 0.027 ± 0.005 (11%) min^−1 and 0.027 ± 0.005 min^−1
k3 [3, 15]: 0.019 ± 0.009 (27%) min^−1 and 0.019 ± 0.009 min^−1
k3 / k4 [3, 15]: 3.52 ± 1.14
k4 [3, 15]: 0.005 ± 0.001 (12%) min^−1 and 0.005 ± 0.001 min^−1
BPND = DVR-1 [3, 16]: 0.097 ± 0.076
K1 [3, 16]: 0.086 ± 0.042 mL·cm^−3·min^−1
VT [3, 16]: 5.23 ± 4.45 mL· cm^−3
k2 [3, 16]: 0.033 ± 0.003 min⁻¹
k3 [3, 16]: 0.003 ± 0.001 min⁻¹
k3 / k4 [3, 16]: 0.74 ± 0.48
k4 [3, 16]: 0.005 ± 0.002 min⁻¹
BPND = DVR-1 [3, 17]: 1.16 ± 0.24
K1 [3, 17]: 0.112 ± 0.061 mL·cm^−3·min^−1
VT [3, 17]: 10.09 ± 8.25 mL· cm^−3
k2 [3, 17]: 0.030 ± 0.004 min⁻¹
k3 [3, 17]: 0.006 ± 0.002 min⁻¹
k3 / k4 [3, 17]: 1.38 ± 0.26
k4 [3, 17]: 0.004 ± 0.001 min⁻¹
BPND = DVR-1 ([3]; 2TCM, vermis, mean ± SD, n = 3): 0.22 ± 0.55
K1 ([3]; 2TCM, vermis, mean ± SD, n = 3): 0.180 ± 0.069 mL·cm^−3·min^−1
VT ([3]; 2TCM, vermis, mean ± SD, n = 3): 4.77 ± 2.72 mL· cm^−3
k2 ([3]; 2TCM, vermis, mean ± SD, n = 3): 0.068 ± 0.005 min⁻¹
k3 ([3]; 2TCM, vermis, mean ± SD, n = 3): 0.004 ± 0.003 min⁻¹
k3 / k4 ([3]; 2TCM, vermis, mean ± SD, n = 3): 0.75 ± 0.43
k4 ([3]; 2TCM, vermis, mean ± SD, n = 3): 0.005 ± 0.001 min⁻¹
BPND = DVR-1 [3, 18]: 0.21 ± 0.13
K1 [3, 18]: 0.065 ± 0.041 mL·cm^−3·min^−1
VT [3, 18]: 5.66 ± 4.49 mL· cm^−3
k2 [3, 18]: 0.026 ± 0.005 min⁻¹
k3 [3, 18]: 0.006 ± 0.002 min⁻¹
k3 / k4 [3, 18]: 1.01 ± 0.32
k4 [3, 18]: 0.006 ± 0.001 min⁻¹
BPND [3, 19]: 2.58 ± 0.9 (20%)
DVR [3, 19]: 3.58 ± 0.9 (15%)
VT [3, 19]: 16.87 ± 17 (58%) mL· cm^−3
DVR ([3]; LoganREF, reference cerebellum-hemispheres, striatum, mean ± SD, n = 7): 3.11 ± 0.43 (5%)
BPND ([3]; LoganREF, frontal cortex, mean ± SD, n = 7): 0.29 ± 0.2
BPND ([3]; LoganREF, hippocampus, mean ± SD, n = 7): 0.47 ± 0.3
BPND ([3]; LoganREF, middle brain, mean ± SD, n = 7): 0.15 ± 0.2
BPND ([3]; LoganREF, occipital cortex, mean ± SD, n = 7): 0.13 ± 0.1
Striatal BPND ([3]; LoganREF, scan duration for analysis 45 min, mean ± SD, n = 7): 1.60 ± 0.58
Striatal BPND ([3]; LoganREF, scan duration for analysis 60 min, mean ± SD, n = 7): 1.69 ± 0.49
Striatal BPND ([3]; LoganREF, scan duration for analysis 90 min, mean ± SD, n = 7): 1.86 ± 0.45
BPND ([3]; LoganREF, temporal cortex, mean ± SD, n = 7): 0.11 ± 0.1
BPND ([3]; LoganREF, thalamus, mean ± SD, n = 7): 0.76 ± 0.3
BPND ([3]; LoganREF, vermis, mean ± SD, n = 7): 0.063 ± 0.2
BPND ([3]; LoganREF, white matter, mean ± SD, n = 7): 0.17 ± 0.2
BPND [3, 20]: 2.17 ± 1 (27%)
DVR [3, 20]: 3.17 ± 1 (18%)
VT [3, 20]: 21.45 ± 14 (38%) mL· cm^−3
BPND [3, 21]: 2.11 ± 0.46 (8%)
DVR [3, 21]: 3.11 ± 0.46 (6%)
R1 = K1/K1′ [3, 21]: ( ^*** R1 = K1/K1′ 0.847 ± 0.08 (4%))
k2 [3, 21]: 0.17 ± 0.16 (36%) min^−1
k3 [3, 21]: 0.05 ± 0.04 (30%) min^−1
k4 [3, 21]: 0.025 ± 0.02 (30%) min^−1
DVR [3, 22]: 3.15 ± 0.46 (6%)
k2 [3, 22]: 0.032 ± 0.007 (8%) min^−1 and 0.032 ± 0.01 min^−1
BPND [3, 23]: 0.32 ± 0.2
R1 [3, 23]: 0.82 ± 0.3
k2 [3, 23]: 0.055 ± 0.02 min⁻¹
BPND [3, 24]: 0.48 ± 0.2
R1 [3, 24]: 0.79 ± 0.1
k2 [3, 24]: 0.053 ± 0.04 min⁻¹
BPND [3, 25]: 0.17 ± 0.1
R1 [3, 25]: 0.74 ± 0.2
k2 [3, 25]: 0.066 ± 0.1 min⁻¹
BPND [3, 26]: 0.12 ± 0.1
R1 [3, 26]: 0.81 ± 0.3
k2 [3, 26]: 0.053 ± 0.02 min⁻¹
Striatal BPND ([3]; SRTM, scan duration for analysis 45 min, mean ± SD, n = 7): 2.67 ± 1.14
Striatal BPND ([3]; SRTM, scan duration for analysis 60 min, mean ± SD, n = 7): 2.14 ± 0.49
Striatal BPND ([3]; SRTM, scan duration for analysis 90 min, mean ± SD, n = 7): 2.18 ± 0.37
BPND [3, 27]: 0.10 ± 0.08
R1 [3, 27]: 0.63 ± 0.2
k2 [3, 27]: 0.074 ± 0.07 min⁻¹
BPND [3, 28]: 0.79 ± 0.3
R1 [3, 28]: 0.95 ± 0.2
k2 [3, 28]: 0.059 ± 0.02 min⁻¹
BPND ([3]; SRTM, vermis, mean ± SD, n = 7): 0.081 ± 0.07
R1 ([3]; SRTM, vermis, mean ± SD, n = 7): 1.08 ± 0.4
k2 ([3]; SRTM, vermis, mean ± SD, n = 7): 0.064 ± 0.6 min⁻¹
BPND [3, 29]: 0.17 ± 0.2
R1 [3, 29]: 0.47 ± 0.1
k2 [3, 29]: 0.032 ± 0.01 min⁻¹
time of peak striatal uptake ([3]; after tracer injection): about 20 min
selectivity for VAChT versus σ1/2 receptors ([4]; ref Tu et al. 2015): over 10,000 fold
Ki [5]: 0.59 nM
retest BPND ([6]; LoganREF, frontal cortex): 0.29 ± 0.08
test BPND ([6]; LoganREF, frontal cortex): 0.29 ± 0.06
retest BPND ([6]; LoganREF, hippocampus): 0.47 ± 0.19
test BPND ([6]; LoganREF, hippocampus): 0.46 ± 0.18
retest BPND ([6]; LoganREF, striatum): 2.26 ± 0.46
test BPND ([6]; LoganREF, striatum): 2.39 ± 0.73
retest BPND ([6]; LoganREF, thalamus): 0.74 ± 0.09
test BPND ([6]; LoganREF, thalamus): 0.70 ± 0.10
retest BPND ([6]; SRTM, frontal cortex): 0.30 ± 0.03
test BPND ([6]; SRTM, frontal cortex): 0.32 ± 0.07
retest BPND ([6]; SRTM, hippocampus): 0.48 ± 0.14
test BPND ([6]; SRTM, hippocampus): 0.46 ± 0.16
retest BPND ([6]; SRTM, striatum): 2.15 ± 0.38
test BPND ([6]; SRTM, striatum): 2.38 ± 0.69
retest BPND ([6]; SRTM, thalamus): 0.77 ± 0.12
test BPND ([6]; SRTM, thalamus): 0.77 ± 0.13

Cc1cccc2c1C[C@@H](O)[C@H](N1CCN(c3ccccc3N)CC1)C2 (relative stereo) [[^11C](R,R)HAPT, (R,R)-trans-8-methyl-2-hydroxy-3-[4-[2-aminophenyl]-piperizinyl]tetralin, reference compound]
time-activity curves peak time post injection [7]: ≤ 20 min
selectivity for VAChT versus σ1/2 receptors ([4]; ref Shiba et al. 2006, Kawamura et al. 2006): 10 fold
